Source: ChEMBL document CHEMBL3632552, “Discovery of (phenoxy-2-hydroxypropyl)piperidines as a novel class of voltage-gated sodium channel 1.7 inhibitors” (Bioorg Med Chem Lett, 2015)

Tests used:
[1] = biological target: Sodium channel protein type 9 subunit alpha (Homo sapiens, UniProt Q15858); assay: Inhibition of human NaV1.7 by IonWorks quattro automated electrophysiology assay
[2] = biological target: Sodium channel protein type 1 subunit alpha (Homo sapiens, UniProt P35498); assay: Inhibition of human NaV1.1 by IonWorks quattro automated electrophysiology assay
[3] = biological target: Sodium channel protein type 5 subunit alpha (Homo sapiens, UniProt Q14524); assay: Inhibition of human NaV1.5 by IonWorks quattro automated electrophysiology assay
Sodium channel protein type 5 subunit alpha, sequence (Q14524 whole entry): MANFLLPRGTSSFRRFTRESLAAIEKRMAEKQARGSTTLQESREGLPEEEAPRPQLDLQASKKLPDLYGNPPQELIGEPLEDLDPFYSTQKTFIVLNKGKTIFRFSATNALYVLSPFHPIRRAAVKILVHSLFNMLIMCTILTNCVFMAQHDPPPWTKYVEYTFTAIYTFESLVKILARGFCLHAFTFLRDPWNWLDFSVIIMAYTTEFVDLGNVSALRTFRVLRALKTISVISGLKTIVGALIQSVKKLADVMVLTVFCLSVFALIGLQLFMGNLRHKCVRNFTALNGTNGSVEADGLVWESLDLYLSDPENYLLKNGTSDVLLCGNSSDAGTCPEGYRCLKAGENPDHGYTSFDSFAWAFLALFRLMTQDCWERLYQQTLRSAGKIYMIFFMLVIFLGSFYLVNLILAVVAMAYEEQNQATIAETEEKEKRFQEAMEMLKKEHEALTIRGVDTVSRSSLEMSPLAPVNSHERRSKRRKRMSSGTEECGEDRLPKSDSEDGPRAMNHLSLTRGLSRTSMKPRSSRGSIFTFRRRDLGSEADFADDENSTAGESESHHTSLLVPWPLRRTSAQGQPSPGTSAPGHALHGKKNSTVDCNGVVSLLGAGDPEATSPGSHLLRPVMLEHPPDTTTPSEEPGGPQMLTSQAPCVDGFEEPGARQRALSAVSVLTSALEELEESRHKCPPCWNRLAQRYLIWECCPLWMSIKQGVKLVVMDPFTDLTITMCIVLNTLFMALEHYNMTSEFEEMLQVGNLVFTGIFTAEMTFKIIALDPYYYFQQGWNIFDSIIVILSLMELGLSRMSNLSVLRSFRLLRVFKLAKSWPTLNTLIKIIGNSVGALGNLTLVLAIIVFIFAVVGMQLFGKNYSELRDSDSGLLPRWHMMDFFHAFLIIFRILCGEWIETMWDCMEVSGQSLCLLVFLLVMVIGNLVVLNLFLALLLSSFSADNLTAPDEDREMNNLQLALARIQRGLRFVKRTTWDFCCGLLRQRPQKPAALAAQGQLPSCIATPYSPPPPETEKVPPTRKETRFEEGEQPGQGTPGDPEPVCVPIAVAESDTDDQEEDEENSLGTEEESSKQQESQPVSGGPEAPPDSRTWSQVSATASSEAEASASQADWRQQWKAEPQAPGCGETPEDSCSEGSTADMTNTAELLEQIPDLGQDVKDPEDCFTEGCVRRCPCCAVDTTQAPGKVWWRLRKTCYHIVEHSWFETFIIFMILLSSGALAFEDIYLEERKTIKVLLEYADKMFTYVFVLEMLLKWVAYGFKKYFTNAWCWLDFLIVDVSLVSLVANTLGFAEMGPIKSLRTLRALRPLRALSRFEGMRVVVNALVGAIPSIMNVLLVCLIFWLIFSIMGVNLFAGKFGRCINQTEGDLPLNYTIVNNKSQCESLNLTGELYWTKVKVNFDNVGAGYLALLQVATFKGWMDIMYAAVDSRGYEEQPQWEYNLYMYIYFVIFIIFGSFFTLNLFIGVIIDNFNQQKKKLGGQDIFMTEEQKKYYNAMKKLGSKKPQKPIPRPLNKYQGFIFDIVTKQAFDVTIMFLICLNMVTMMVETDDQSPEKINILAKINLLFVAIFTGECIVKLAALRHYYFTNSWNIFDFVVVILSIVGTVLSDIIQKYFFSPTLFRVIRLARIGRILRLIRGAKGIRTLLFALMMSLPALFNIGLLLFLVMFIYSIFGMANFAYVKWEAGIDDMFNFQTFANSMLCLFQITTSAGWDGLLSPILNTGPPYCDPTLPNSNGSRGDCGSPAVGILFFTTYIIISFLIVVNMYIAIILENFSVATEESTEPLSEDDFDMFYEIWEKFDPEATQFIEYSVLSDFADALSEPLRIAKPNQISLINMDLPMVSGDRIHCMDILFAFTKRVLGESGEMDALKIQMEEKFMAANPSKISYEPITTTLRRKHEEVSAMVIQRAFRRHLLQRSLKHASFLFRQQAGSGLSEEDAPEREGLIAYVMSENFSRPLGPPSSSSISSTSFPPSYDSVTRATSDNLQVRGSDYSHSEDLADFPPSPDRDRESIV

[4] = biological target: Sodium channel protein type 9 subunit alpha (Mus musculus, UniProt Q62205); assay: Inhibition of mouse NaV1.7 by IonWorks quattro automated electrophysiology assay
Sodium channel protein type 9 subunit alpha (Mus musculus, UniProt Q62205), sequence (Q62205 whole entry): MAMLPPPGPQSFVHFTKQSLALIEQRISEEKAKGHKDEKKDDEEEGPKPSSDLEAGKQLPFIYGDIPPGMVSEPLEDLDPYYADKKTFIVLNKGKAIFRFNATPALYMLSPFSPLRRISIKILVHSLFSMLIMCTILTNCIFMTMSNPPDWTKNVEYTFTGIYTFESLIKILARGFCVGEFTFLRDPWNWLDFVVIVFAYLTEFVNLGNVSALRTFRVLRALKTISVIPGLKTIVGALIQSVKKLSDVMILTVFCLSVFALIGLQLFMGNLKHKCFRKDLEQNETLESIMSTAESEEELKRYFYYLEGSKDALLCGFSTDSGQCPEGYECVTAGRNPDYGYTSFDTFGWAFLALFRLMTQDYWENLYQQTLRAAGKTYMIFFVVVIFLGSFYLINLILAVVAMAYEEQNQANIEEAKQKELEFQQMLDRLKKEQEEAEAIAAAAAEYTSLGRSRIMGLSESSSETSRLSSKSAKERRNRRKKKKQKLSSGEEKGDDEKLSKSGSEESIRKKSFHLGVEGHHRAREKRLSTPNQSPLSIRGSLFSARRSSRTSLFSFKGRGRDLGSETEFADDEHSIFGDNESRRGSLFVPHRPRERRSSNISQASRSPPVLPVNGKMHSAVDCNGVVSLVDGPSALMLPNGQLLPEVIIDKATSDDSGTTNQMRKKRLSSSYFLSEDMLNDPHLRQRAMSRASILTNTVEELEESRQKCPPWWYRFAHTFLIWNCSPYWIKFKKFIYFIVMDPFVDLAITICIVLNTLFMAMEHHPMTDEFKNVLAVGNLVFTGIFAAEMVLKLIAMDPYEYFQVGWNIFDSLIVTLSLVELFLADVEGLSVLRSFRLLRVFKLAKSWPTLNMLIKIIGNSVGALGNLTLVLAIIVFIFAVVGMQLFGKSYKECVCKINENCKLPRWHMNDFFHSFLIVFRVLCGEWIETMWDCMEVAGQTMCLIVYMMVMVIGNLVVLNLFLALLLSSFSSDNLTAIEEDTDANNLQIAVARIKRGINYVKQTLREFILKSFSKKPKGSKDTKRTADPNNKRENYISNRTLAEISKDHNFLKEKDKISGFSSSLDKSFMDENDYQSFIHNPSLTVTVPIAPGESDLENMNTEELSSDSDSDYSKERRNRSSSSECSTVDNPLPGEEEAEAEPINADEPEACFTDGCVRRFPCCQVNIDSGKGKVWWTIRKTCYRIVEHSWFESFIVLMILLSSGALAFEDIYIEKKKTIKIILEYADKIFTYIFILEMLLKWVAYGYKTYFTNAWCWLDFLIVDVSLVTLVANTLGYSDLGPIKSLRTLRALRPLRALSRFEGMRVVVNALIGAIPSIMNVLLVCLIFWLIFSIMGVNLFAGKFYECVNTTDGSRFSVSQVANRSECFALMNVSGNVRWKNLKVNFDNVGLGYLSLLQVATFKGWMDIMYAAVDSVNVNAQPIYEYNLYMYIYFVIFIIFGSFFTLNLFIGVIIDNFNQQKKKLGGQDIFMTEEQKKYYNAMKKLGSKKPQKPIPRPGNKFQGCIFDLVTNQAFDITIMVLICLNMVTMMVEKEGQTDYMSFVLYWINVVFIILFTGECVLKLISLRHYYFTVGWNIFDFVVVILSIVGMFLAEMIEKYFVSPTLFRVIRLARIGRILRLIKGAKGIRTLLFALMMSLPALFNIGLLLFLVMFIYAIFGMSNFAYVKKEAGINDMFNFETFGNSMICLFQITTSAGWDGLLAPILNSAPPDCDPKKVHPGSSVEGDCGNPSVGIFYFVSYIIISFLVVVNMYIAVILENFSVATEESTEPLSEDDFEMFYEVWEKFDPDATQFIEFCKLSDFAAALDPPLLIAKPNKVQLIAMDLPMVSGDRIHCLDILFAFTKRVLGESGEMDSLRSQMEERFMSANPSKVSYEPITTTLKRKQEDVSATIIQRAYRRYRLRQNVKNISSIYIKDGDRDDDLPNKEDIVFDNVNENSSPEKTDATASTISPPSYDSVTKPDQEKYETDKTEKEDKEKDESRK

[5] = biological target: Sodium channel protein type 1 subunit alpha (Mus musculus, UniProt A2APX8); assay: Inhibition of mouse NaV1.1 by IonWorks quattro automated electrophysiology assay
[6] = species: Mus musculus; assay: Analgesic activity in mouse assessed as inhibition of acetic acid-induced writhing response; format: functional
[7] = tested on: Mus musculus; assay: Toxicity in po dosed mouse assessed as reduction of locomotor activity; format: organism-based; conditions: in vivo
[8] = tested on: Plasma; assay: Fraction unbound in mouse plasma; format: ADME, cell-free
[9] = Tmax in db/db mouse at 30 mg/kg, po; format: ADME, organism-based; conditions: in vivo
[10] = Cmax in db/db mouse at 30 mg/kg, po; format: ADME, organism-based; set-up: dose 30 mg/kg, route oral; conditions: in vivo
[11] = AUC in db/db mouse at 30 mg/kg, po; format: ADME, organism-based; conditions: in vivo
[12] = tested on: Mus musculus; assay: Toxicity in mouse assessed as reduction of locomotor activity at 100 mg/kg, po; format: organism-based; conditions: in vivo
[13] = Tmax in CD mouse at 30 mg/kg, po; format: ADME, organism-based; conditions: in vivo
[14] = Cmax in CD mouse at 30 mg/kg, po; format: ADME, organism-based; set-up: dose 30 mg/kg, route oral; conditions: in vivo
[15] = AUC in CD mouse at 30 mg/kg, po; format: ADME, organism-based; conditions: in vivo
[16] = Therapeutic index, ratio of toxic ID50 in mouse to analgesic activity ED50 in mouse; format: organism-based; conditions: in vivo, read-out: TI

IC50 [1] [nM]	IC50 [2] [µM]	IC50 [4] [nM]	Compound	IC50 [3] [µM]	other results
1000	1.2	790	O=C1c2ccccc2CN1C1CCN(CC(O)COc2cccc(C(F)(F)F)c2)CC1 (stereo not given)	4.4	
380	0.67	590	O=C(c1ccccc1)c1ccc(OCC(O)CN2CCC(N3Cc4ccccc4C3=O)CC2)cc1 (stereo not given)	1.2	
3400	8	5000	O=C1c2ccccc2CN1C1CCN(CC(O)COc2ccccc2)CC1 (stereo not given)	38	
1200	4.3	1000	O=C(c1ccccc1)c1ccccc1OCC(O)CN1CCC(C(=O)Nc2ccccc2)CC1 (stereo not given)	1.9	
700	0.8	400	O=C(NC1CCN(CC(O)COc2ccc(C(F)(F)F)cc2)CC1)c1ccccc1 (stereo not given)	1.1	
480	0.91	330	COc1cc(C(F)(F)F)ccc1OCC(O)CN1CCC(N2Cc3ccccc3C2=O)CC1 (stereo not given)	5.6	
780	4.4	2100	O=C1COc2c(cccc2C2CCN(CC(O)COc3ccccc3C(=O)c3ccccc3)CC2)N1 (stereo not given)	7	
	11	11000	Cc1cccc(C)c1OCC(C)N.Cl (stereo not given) [MEXILETINE HYDROCHLORIDE]		IC50 [5]: 21000 nM; ED50 [6]: 21 mg/kg; ID50 [7]: 45 mg/kg
1100	3	1500	O=C1c2ccccc2CN1C1CCN(CC(O)COCc2ccc(C(F)(F)F)cc2)CC1 (stereo not given)	3	
1800	2.7	1300	COc1ccc(OCC(O)CN2CCC(N3Cc4ccccc4C3=O)CC2)cc1 (stereo not given)	13	
1000	3.1	800	O=C(Nc1ccccc1)C1CCN(CC(O)COc2ccc(C(F)(F)F)cc2)CC1 (stereo not given)	3.4	
1200	1.5	790	COc1cc(C(F)(F)F)ccc1COCC(O)CN1CCC(N2Cc3ccccc3C2=O)CC1.O=C(O)/C=C/C(=O)O (stereo not given)	6.1	IC50 [5]: 670 nM; Fu [8]: 5.55%; Tmax [9]: 30 min; Cmax [10]: 445 ng/mL; AUC [11]: 1910 ng·h/mL; ED50 [6]: 10 mg/kg; Activity [12]: Toxic
3700	21	2400	O=C1CCc2c(cccc2N2CCN(CC(O)COc3ccccc3C(=O)c3ccccc3)CC2)N1 (stereo not given)	17	
3900	> 33	5000	O=C1COc2c(cccc2N2CCN(CC(O)COc3ccccc3C(=O)c3ccccc3)CC2)N1 (stereo not given)	20	
500	1.8	100	O=C1c2ccccc2CN1C1CCN(CC(O)COc2ccc(C(F)(F)F)cc2)CC1 (stereo not given)	2.8	
5300	19	4800	COc1ccccc1OCC(O)CN1CCC(N2Cc3ccccc3C2=O)CC1 (stereo not given)	77	IC50 [5]: 34000 nM; Tmax [13]: 30 min; Cmax [14]: 467 ng/mL; AUC [15]: 692 ng·h/mL; ED50 [6]: 7 mg/kg; ID50 [7]: 20 mg/kg; selectivity ratio [16]: 2.9
1500	3.3	1200	O=C(c1ccccc1)c1ccccc1OCC(O)CN1CCC(N2Cc3ccccc3C2=O)CC1 (stereo not given)	24	IC50 [5]: 3100 nM; Tmax [13]: 30 min; Cmax [14]: 16 ng/mL; AUC [15]: 18 ng·h/mL
1700	3.3	1300	COc1cc(C(F)(F)F)ccc1COCC(O)CN1CCC(C(=O)Nc2ccccc2)CC1 (stereo not given)	16	IC50 [5]: 2400 nM; Fu [8]: 4.18%; Tmax [9]: 30 min; Cmax [10]: 161 ng/mL; AUC [11]: 303 ng·h/mL; ED50 [6]: 19 mg/kg; ID50 [7]: 111 mg/kg; selectivity ratio [16]: 5.8
1100	3.2	920	O=C(NC1CCN(CC(O)COc2ccccc2C(=O)c2ccccc2)CC1)c1ccccc1 (stereo not given)	4.9	
1400	3	910	COc1cccc(OCC(O)CN2CCC(N3Cc4ccccc4C3=O)CC2)c1 (stereo not given)	10	
1300	7.1	16000	O=C1CCc2c(cccc2C2CCN(CC(O)COc3ccccc3C(=O)c3ccccc3)CC2)N1 (stereo not given)	18	
900	0.92	960	O=C(c1ccccc1)c1cccc(OCC(O)CN2CCC(N3Cc4ccccc4C3=O)CC2)c1 (stereo not given)	3.7	IC50 [5]: 690 nM; Fu [8]: 1.99%; Tmax [13]: 30 min; Cmax [14]: 169 ng/mL; AUC [15]: 525 ng·h/mL
2800	4.5	4800	O=C1c2ccccc2CN1C1CCN(CC(O)COc2ccccc2C(F)(F)F)CC1 (stereo not given)	7.1	

Compound	IC50 [1] [nM]	IC50 [2] [µM]	IC50 [4] [nM]	IC50 [3] [µM]	other results
O=C(c1ccccc1)c1ccccc1OCC(O)CN1CCC(N2C(=O)COc3ccccc32)CC1 (stereo not given)	1100	4.8	1300	5.2	
O=C(c1ccccc1)c1ccccc1OCC(O)CN1CCC(n2c(=O)oc3ccccc32)CC1 (stereo not given)	1800	5.4	3100	3.4	
O=C(c1ccccc1)c1ccccc1OCC(O)CN1CCN(c2cccc3[nH]c(=O)oc23)CC1 (stereo not given)	24000	> 33	31000	> 33	
O=C(c1ccccc1)c1ccccc1OCC(O)CN1CCC(N2C(=O)Cc3ccccc32)CC1 (stereo not given)	9400	26	5000	33	
